Assays:
pigweed = experiment: Test A pre-/postemergence herbicide test; format: in vivo, Amaranthus retroflexus
How it was run: (§1)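 Formulated compound (non-phytotoxic solvent, surfactant) sprayed pre- onto soil of seeded loam/sand pots or post- onto seedlings at 1–2 leaves; ~10 d greenhouse; 0–100 visual control rating versus untreated.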

ragweed = experiment: Test A pre-/postemergence herbicide test; format: in vivo, Ambrosia elatior
How it was run: as §1

barnyardgrass [1] = experiment: Test A pre-/postemergence herbicide test; format: in vivo, Echinochloa crus-galli
How it was run: as §1

rice = experiment: Test B flooded paddy test; format: in vivo, Oryza sativa; conditions: 500 g ai/ha, Flood; scale of 0 to 100 where 0 is no effect and 100 is complete control
How it was run: (§2)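 First, plants reach the 2-leaf stage; next, pots are flooded to 3 cm and compound is delivered into the water; finally, after 13 to 15 greenhouse days at constant depth, injury is graded visually from 0 to 100 against controls.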

galium = experiment: Test A postemergence herbicide test; format: in vivo, Galium aparine
How it was run: (§3)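 Plants at the one- to two-leaf stage, 2–10 cm tall, grown in loam/sand pots, received postemergence sprays of the test chemicals. After about 10 days in the greenhouse, injury was scored visually against untreated controls on a 0–100 scale (0 none, 100 complete control).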

sedge, umbrella = experiment: Test B flooded paddy test; format: in vivo, Cyperus difformis; conditions: 500 g ai/ha, Flood; scale of 0 to 100 where 0 is no effect and 100 is complete control
How it was run: as §2

ryegrass, Italian = experiment: Test A pre-/postemergence herbicide test; format: in vivo, Lolium multiflorum
How it was run: as §1

corn = experiment: Test A pre-/postemergence herbicide test; format: in vivo, Zea mays; conditions: Postemergence
How it was run: as §1

barnyardgrass [2] = experiment: Test B flooded paddy test; format: in vivo, Echinochloa crus-galli; conditions: 500 g ai/ha, Flood; scale of 0 to 100 where 0 is no effect and 100 is complete control
How it was run: as §2

giant foxtail = experiment: Test A pre-/postemergence herbicide test; format: in vivo, Setaria faberii
How it was run: as §1

blackgrass = experiment: Test A postemergence herbicide test; format: in vivo, Alopecurus myosuroides
How it was run: as §3

ducksalad = experiment: Test B flooded paddy test; format: in vivo, Heteranthera limosa; conditions: 500 g ai/ha, Flood; scale of 0 to 100 where 0 is no effect and 100 is complete control
How it was run: as §2

kochia = experiment: Test A pre-/postemergence herbicide test; format: in vivo, Kochia scoparia
How it was run: as §1

wheat = experiment: Test A pre-/postemergence herbicide test; format: in vivo, Triticum aestivum; conditions: Postemergence
How it was run: as §1

[3] = Postemergence, 125 g ai/ha, visual rating on 0 to 100 scale (0 no effect, 100 complete control), approx. 10 days
[4] = Postemergence, 500 g ai/ha, 0 to 100 scale (0 no effect, 100 complete control)
[5] = Preemergence, 125 g ai/ha, 0 to 100 scale where 0 is no effect and 100 is complete control
[6] = Preemergence, 500 g ai/ha, visual rating on 0 to 100 scale (0 no effect, 100 complete control)
[7] = 125 g ai/ha, visual rating on 0 to 100 scale (0 no effect, 100 complete control), approx. 10 days
[8] = 500 g ai/ha, 0 to 100 scale (0 no effect, 100 complete control)

| Structure (SMILES) | Plant response rating, Pigweed (pigweed; [3]) | Plant response rating, Pigweed (pigweed; [5]) | Pigweed plant response rating (pigweed; [6]) | Plant response rating, Ragweed (ragweed; [3]) | Plant response rating, Ragweed (ragweed; [5]) | Ragweed plant response rating (ragweed; [6]) | Plant response rating, Barnyardgrass (barnyardgrass [1]; [3]) | Plant response rating, Barnyardgrass (barnyardgrass [1]; [4]) | Plant response rating, Barnyardgrass (barnyardgrass [1]; [5]) | Barnyardgrass plant response rating (barnyardgrass [1]; [6]) | Plant response rating, Rice (rice) | Plant response rating, Galium (galium; [7]) | Plant response rating, Sedge, Umbrella (sedge, umbrella) | Plant response rating, Ryegrass, Italian (ryegrass, Italian; [3]) | Plant response rating, Ryegrass, Italian (ryegrass, Italian; [5]) | Ryegrass, Italian plant response rating (ryegrass, Italian; [6]) | Plant response rating, Corn (corn; [7]) | Plant response rating, Corn (corn; [8]) | Plant response rating, Barnyardgrass (barnyardgrass [2]) | Plant response rating, Foxtail, Giant (giant foxtail; [3]) | other results |
| --- | --- | --- | --- | --- | --- | --- | --- | --- | --- | --- | --- | --- | --- | --- | --- | --- | --- | --- | --- | --- | --- |
| O=C1NCC(c2cccc(Oc3ccccc3)c2)C1C(=O)Nc1ccccc1Cl (stereo not drawn) [Compound 334] | 0 | 0 | 0 | 0 | 0 | 0 | 0 | 0 | 0 | 0 | 0 | 0 | 0 | 0 | 0 | 0 | 0 | 0 | 30 | 0 | Plant response rating, Pigweed (pigweed; [4]): 0; Plant response rating, Ragweed (ragweed; [4]): 0; Plant response rating, Galium (galium; [8]): 0; Plant response rating, Ryegrass, Italian (ryegrass, Italian; [4]): 0; Plant response rating, Foxtail, Giant (giant foxtail; [4]): 10; Plant response rating, Foxtail, Giant (giant foxtail; [5]): 0; Foxtail, Giant plant response rating (giant foxtail; [6]): 50; Plant response rating, Blackgrass (blackgrass; [7]): 0; Plant response rating, Blackgrass (blackgrass; [8]): 0; Plant response rating, Ducksalad (ducksalad): 40; Plant response rating, Kochia (kochia; [3]): 0; Plant response rating, Kochia (kochia; [4]): 0; Plant response rating, Kochia (kochia; [5]): 0; Kochia plant response rating (kochia; [6]): 0; Plant response rating, Wheat (wheat; [7]): 0; Plant response rating, Wheat (wheat; [8]): 0 |
| O=C1NCC(c2cccc(-n3cccn3)c2)C1C(=O)Nc1cccc(F)c1F (stereo not drawn) [Compound 337] | 0 | 0 | 0 | 0 | 0 | 0 | 0 | 50 | 0 | 20 | 0 | 0 | 0 | 0 | 0 | 0 | 0 | 0 | 0 | 0 | Plant response rating, Foxtail, Giant (giant foxtail; [4]): 40; Plant response rating, Foxtail, Giant (giant foxtail; [5]): 0; Foxtail, Giant plant response rating (giant foxtail; [6]): 30; Plant response rating, Blackgrass (blackgrass; [7]): 0; Plant response rating, Blackgrass (blackgrass; [8]): 0; Plant response rating, Ducksalad (ducksalad): 0; Plant response rating, Kochia (kochia; [3]): 0; Plant response rating, Kochia (kochia; [5]): 0; Kochia plant response rating (kochia; [6]): 0; Plant response rating, Wheat (wheat; [7]): 0 |

— patent US10294202B2, “Pyrrolidinones as herbicides” (FMC Corporation, priority 2013, dated 2019)
